US7498304B2, “Angiogenesis-modulating compositions and uses” (Curis, Inc., priority 2002, dated 2009)
Values belong to the substance of their own block, whether it stands above or below them.

Tests used:
[1] = test system: matrigel plug; assay: subcutaneous matrigel plug assay of angiogenesis; conditions: mouse, in vivo
Description: Hedgehog was also found to induce angiogenesis in the subcutaneous matrigel plug assay (Passaniti et al., 1992). Doses of 2 to 10 ug/ml of octyl, myr, PEG II or II-Fc fusion forms of human recombinant Shh were prepared in 0.5 ml of matrigel containing 40 IU/ml of heparin and injected subcutaneously into C57BL6 mice (3-5 mo. old, 5 mice/treatment group). The mice were sacrificed between 6-7 days after injection and the matrigel plug was dissected for visual inspection and histological analysis. […] The results of the matrigel plug support the finding that hedgehog can induce angiogenesis in vivo.

[2] = test system: C3H10T1/2 cells; assay: C3H10T1/2 alkaline phosphatase induction assay; assay type: cell-based, mouse
Excerpt: Persons having ordinary skill in the art can easily test any putative hedgehog antagonist for these properties. In particular, the mouse embryonic fibroblast line C3H10T1/2 is a mesenchymal stem cell line that is hedgehog responsive. Hedgehog treatment of the cells causes an upregulation of gli-1 and patched-1 (known indicators of hedgehog dependent signaling) and also causes induction of alkaline phosphatase activity, an indicator that the cells have differentiated down the chondrocyte/ bone osteoblast lineage. Several hedgehog variants are unable to elicit a hedgehog-dependent response on C3H10T1/2 cells, but they competed with mature hedgehog for function and therefore serve as functional antagonists. […]
The mouse embryonic fibroblast line C3H10T1/2 is a mesenchymal stem cell line that, under defined conditions, can differentiate into adipocytes, chondrocytes, and bone osteoblasts (Taylor, S. M., and Jones, P. A., Cell 17: 771-779 (1979) and Wang, E. A., et al., Growth Factors 9: 57-71 (1993)). […] Shh has a similar effect on C3H10T1/2 cells (Kinto, N. et al., FEBS Letts. 404: 319-323 (1997)) and we routinely use the alkaline phosphatase induction by Shh as a quantitative measure of its in vitro potency. Shh treatment also produces a dose-dependent increase in gli-1 and ptc-1 expression, which can be readily detected by a PCR-based analysis.

[3] = target: T1, patched-1 (Homo sapiens, UniProt Q13635); assay: binding to the hedgehog receptor patched-1; conditions: compared with mature Shh
T1 sequence (Q13635 1-1447): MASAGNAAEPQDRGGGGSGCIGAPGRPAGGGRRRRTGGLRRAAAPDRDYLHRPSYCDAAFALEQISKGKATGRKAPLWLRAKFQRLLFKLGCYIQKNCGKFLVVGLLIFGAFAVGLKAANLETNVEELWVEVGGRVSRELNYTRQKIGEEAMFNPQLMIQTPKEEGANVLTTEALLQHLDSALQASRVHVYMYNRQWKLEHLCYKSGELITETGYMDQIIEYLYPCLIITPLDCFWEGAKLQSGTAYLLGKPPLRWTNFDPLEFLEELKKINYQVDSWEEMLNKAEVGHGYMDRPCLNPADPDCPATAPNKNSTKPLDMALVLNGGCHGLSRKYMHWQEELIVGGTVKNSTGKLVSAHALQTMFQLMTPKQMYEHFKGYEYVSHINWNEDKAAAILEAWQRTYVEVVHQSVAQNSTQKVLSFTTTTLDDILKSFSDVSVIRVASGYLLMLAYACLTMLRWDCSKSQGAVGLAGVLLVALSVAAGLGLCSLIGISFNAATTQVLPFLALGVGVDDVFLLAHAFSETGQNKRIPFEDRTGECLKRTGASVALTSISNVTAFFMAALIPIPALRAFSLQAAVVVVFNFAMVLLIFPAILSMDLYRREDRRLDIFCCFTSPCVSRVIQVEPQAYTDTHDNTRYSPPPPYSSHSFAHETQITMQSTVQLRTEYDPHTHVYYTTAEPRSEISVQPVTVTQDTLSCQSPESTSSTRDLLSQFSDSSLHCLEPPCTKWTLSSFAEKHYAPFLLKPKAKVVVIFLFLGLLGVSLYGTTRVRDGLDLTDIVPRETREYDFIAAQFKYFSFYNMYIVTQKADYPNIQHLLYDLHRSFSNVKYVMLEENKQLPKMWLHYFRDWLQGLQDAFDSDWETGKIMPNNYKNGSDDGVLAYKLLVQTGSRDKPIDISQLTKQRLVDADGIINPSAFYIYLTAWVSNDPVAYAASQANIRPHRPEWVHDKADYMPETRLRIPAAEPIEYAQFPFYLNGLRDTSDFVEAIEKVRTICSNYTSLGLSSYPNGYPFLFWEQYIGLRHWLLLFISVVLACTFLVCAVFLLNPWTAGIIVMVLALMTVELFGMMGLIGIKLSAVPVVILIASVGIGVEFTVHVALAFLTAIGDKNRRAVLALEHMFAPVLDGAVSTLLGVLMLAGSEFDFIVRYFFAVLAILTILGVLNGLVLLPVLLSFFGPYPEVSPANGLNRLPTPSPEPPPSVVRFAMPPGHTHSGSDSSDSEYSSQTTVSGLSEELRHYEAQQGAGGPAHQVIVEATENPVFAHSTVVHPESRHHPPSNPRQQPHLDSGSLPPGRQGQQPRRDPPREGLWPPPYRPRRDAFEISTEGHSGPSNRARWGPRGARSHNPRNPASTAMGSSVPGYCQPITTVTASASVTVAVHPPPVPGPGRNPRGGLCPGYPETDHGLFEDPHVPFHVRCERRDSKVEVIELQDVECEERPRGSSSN

[4] = test system: mouse cornea; assay: mouse corneal pocket model of angiogenesis; assay type: in vivo
Description: To confirm the angiogenic activity of hedgehog in another well accepted model of angiogenesis, we tested the ability of hedgehog protein to induce neovascularization in the mouse corneal model pocket model of angiogenesis.
Animals were anesthetized by pentobarbital intraperitoneal injection (160 mg/kg). Corneal pockets were created in the eyes of each mouse and a 0.34×0.34 mm sucrose albumin sulfate (Bukh Meditec, Vaerlose, DK) pellet coated with hydron polymer type NCC (Interferon Sciences, New Brunswick, N.J.) containing 1 of the agents indicated below was implanted into the corneal pocket. […] mice were divided into 5 groups: control buffer alone; VEGF 300 ng/pellet; Myr-Shh vehicle alone; Myr-Shh 1.5 microg/pellet […]; Myr-Shh+VEGF (1.5 microg/pellet +300 ng/pellet, respectively). Pellets were positioned 1.0 mm from the corneal limbus, and erythromycin ophthalmic ointment (E. Fourera) was applied to each operated eye. The corneas of all mice were routinely examined by slit-lamp biomicroscopy on postoperative day 6 after pellet implantation.
On the same day vessel length and corneal circumferential neovascularity (in degrees) were measured. After completing these measurements, C57BL/6J mice received an intravenous injection of […] of BS-1 lectin FITC-conjugated (Vector Laboratories, Burlingame, Calif.). Thirty minutes later, the animals were sacrificed. The eyes were enucleated and fixed in 1% paraformaldehyde solution. After fixation, the corneas were placed on glass slides and examined by fluorescence microscopy.
To determine the mechanism by which Shh induces angiogenesis both Shh and VEGF-stimulated corneas (see Example 3) were excised and X-gal stained as described in Example 1 after fixation of the whole eye for 1 hour in 1% paraformaldehyde followed by enucleation and fixation of the corneal hemisphere in 1% paraformaldehyde for 30 minutes. […] Endothelial cell immunostaining was done with a rat monoclonal antibody against mouse CD-31 (Pharmigen, San Diego, Calif.) followed by a biotinylated goat anti-rat immunoglobulin secondary antibody. Smooth muscle cells and pericytes were identified with a mouse monoclonal antibody against SM a-actin conjugated with alkaline-phosphatase (Sigma, St. Louis, Mo.) and fibroblasts were identified using an anti-vimentin antibody (Sigma, St. Louis, Mo.).
We then immunostained the Shh-induced corneas with a rabbit polyclonal anti-VEGF antibody (Santa Cruz Biotechnology, Santa Cruz, Calif.) with a biotinylated goat anti-rabbit immunoglobulin as secondary antibody.

[5] = pellet: Myr-Shh 1.5 microg or VEGF 300 ng

Substance: bFGF: Recombinant human bFGF, a known angiogenic protein
implants with significant hemoglobin content [1]: 3 of 5

ability to bind patched-1 [3]: indistinguishable from mature Shh
Substance: Shh in which the N-terminal cysteine is replaced with a serine residue: Shh mutant, N-terminal cysteine replaced with serine; functional antagonist
block of AP induction by mature Shh [2]: blocks AP induction

Substance: VEGF [reference compound]
X-gal staining (Ptc 1 expression) of corneas ([4]; Ptc1-lacZ corneas): did not stain with X-gal
mean number of vascular lumens per cross section ([4]; compared with Shh): higher
maximum vessel lengths [4, 5]: 700±70 um
vessel diameters (mean) [4, 5]: 8±3 um
neovascular growth ([4]; pellet: Myr-Shh 1.5 microg or VEGF 300 ng, day 6): significant neovascular growth
